The results in this text go back to ChEMBL document CHEMBL1649242, “Molecular epidemiology of CTX-M-producing Escherichia coli isolates at a tertiary medical center in western Pennsylvania” (Antimicrob Agents Chemother, 2009).

Activity calls are given as the source filed them. The calls are words filed in the database; no cut-off is given here.

What all share (format): functional, organism-based
Assay [1] deals with Escherichia coli. The experiment in a line: Antimicrobial activity against TEM-10 ESBL producing Escherichia coli clinical isolate by CLSI disk diffusion assay. (Agar diffusion results depend on both activity and mobility in agar.)
Assay [2] deals with Escherichia coli. In words: Antimicrobial activity against CTX-M ESBL producing Escherichia coli clinical isolate by CLSI disk diffusion assay.
Assay [3] concerns Escherichia coli. The experiment in a line: Antimicrobial activity against CTX-M-15 ESBL producing Escherichia coli clinical isolate by CLSI disk diffusion assay.
The subject of assay [4] is Escherichia coli. In words: Antimicrobial activity against SHV-5 ESBL producing Escherichia coli clinical isolate by CLSI disk diffusion assay.
The subject of assay [5] is Escherichia coli. The experiment in a line: Antimicrobial activity against SHV-7 ESBL producing Escherichia coli clinical isolate by CLSI disk diffusion assay.

For the molecule `CO/N=C(\C(=O)N[C@@H]1C(=O)N2C(C(=O)O)=C(COC(C)=O)CS[C@H]12)c1csc(N)n1`, the result with Escherichia coli [1] was Active.

As for `CC(C)(O/N=C(\C(=O)N[C@@H]1C(=O)N2C(C(=O)[O-])=C(C[n+]3ccccc3)CS[C@H]12)c1csc(N)n1)C(=O)O`, the result in the assay with Escherichia coli [2], in the assay on Escherichia coli [3], with Escherichia coli [4], in the assay with Escherichia coli [5] and in the assay on Escherichia coli [1] was inactive.
